How the values were obtained:
[1] = system: B16 mouse melanoma cells; experiment: Tumor metastasis inhibitory activity against B16 mouse melanoma (lung nodules); assay type: in vivo, C57BL/6 mouse; details: p.o., lung surface nodules 14 days after B16 injection, vs control
[2] = system: pancreatic lymphocyte of mouse; experiment: Lymphocyte mixed culture reaction (3H-thymidine uptake, DNA synthesis); assay type: cell-based, BALB/C mouse; details: concentration 1 ng/mL; cultured 3 days, 3H-TdR uptake 6 hours
Protocol: Experiment 1: Lymphocyte mixed culture reaction.
The pancreatic cells of BALB/C mouse were regulated to a concentration of 2×10^6 cells/ml with a culture medium of 10% FCS RPMI 1640, respectively. These cells (100 ul/well) and a sample (10 ul/well) were plated in a 96 well round-bottomed plate and cultured for 3 days under the condition of 37° C. and 5% CO2. Then, 3H-thymidine (3H-TdR) was added in a dose of 0.5 uCi/well. After 6 hours, the cells were harvested and subjected to the measurement of the uptake of 3H-TdR by a liquid scintillation counter. Thus, the DNA synthesis of pancreatic lymphocyte of mouse […].

| Structure (SMILES) | Inhibition of metastasis (%) ([1]; dose 0.001 mg/kg) | Increase of DNA synthesis (%) [2] [%] | Inhibition of metastasis (%) ([1]; dose 1 mg/kg) |
| --- | --- | --- | --- |
| CCCCCCCCCCCCCCCCCCCCCCCCCC(=O)NC(CC[C@H]1OC(CO)[C@H](O)C(O)C1O)C(O)C(O)CCCCCCCCCCCCCC (stereo partly drawn) [Compound 1, (3′S,4′S,5′R)-3′-N-Hexacosanoylamino-4′,5′-dihydroxy-nonadecane-α-C-D-galactopyranoside] | 65.3 | 54.6 |  |
| CCCCCCCCCCCCCCCCCCCCCCCCCC(=O)NC(CS[C@H]1OC(CO)[C@H](O)C(O)C1O)C(O)C(O)CCCCCCCCCCCCCC (stereo partly drawn) [Compound 8, (2′S,3′S,4′R)-3′,4′-Dihydroxy-2′-N-hexacosanoylamino-octadecane-1′-thio-yl-α-C-D-galactopyranoside] |  | 35.4 | 80.8 |

Reference: patent US6635622B2, “Glycolipid derivative” (Kotobuki Pharmaceutical Co., Ltd., priority 2000, dated 2003)
